Data as given in US20140227366A1, “CARRIER MATERIAL FOR IMPROVING THE PERSISTANCE OF BIOCIDES” (priority 2011, published 2014).

Tested on: aphids (Aphis craccivora)
Test: Efficacy/penetration depth into soils: aphid mortality on chickpeas planted in soil zones from a watered soil column
Type: in vivo
Details: top 6 cm soil with 0.5 mg/ai TMX, watering rate 255 l/m^2, chickpeas infected with Aphis craccivora, average of multiple experiments
Description: The penetration depth of TMX with and without the improvement system was investigated using the test setup described below.
In this connection, a cylinder (diameter approx. 5.5 cm) was filled to approx. 21 cm with liquid-saturated soil. The soil was divided into three zones of 7 cm each, which were called Zone I (uppermost soil layer), Zone II (middle soil layer), and Zone III (bottommost soil layer).
Subsequently, the cylinder was filled up with 6 cm soil that had been mixed once with 0.5 mg/ai TMX (comparison test), and once with 6 cm soil with 0.5 mg/ai TMX and 2 kg/m^2 improvement system (invention example).
The cylinder was now watered (watering rate 255 l/m^2) until the water had reached the bottom, i.e. complete watering had been achieved.
Subsequently, the soil of Zone I (uppermost zone) to Zone III (bottommost zone) was removed, and chickpeas that had been infected with aphids (Aphis craccivora) were planted in the soil. Now the mortality rate of the aphids was measured, as listed in Table I (average values on the basis of multiple experiments).

CN1COCN(Cc2cnc(Cl)s2)/C1=N/[N+](=O)[O-] [Comparison example, 3-[(2-chloro-1,3-thiazol-5-yl)methyl]-5-methyl-N-nitro-1,3,5-oxadioazinan-4-imine] was tested, and the “mortality rate of the aphids, Zone I” value (Zone I (uppermost soil layer, 7 cm)) was 93%, the “mortality rate of the aphids, Zone II” value (Zone II (middle soil layer, 7 cm)) was 70% and the “mortality rate of the aphids, Zone III” value (Zone III (bottommost soil layer, 7 cm)) was 5%.
